Measured values taken from patent US20260234165A1, “MACROCYCLIC COMPOUNDS, PREPARATION METHOD THEREFOR, AND USE THEREOF” (GENFLEET THERAPEUTICS (SHANGHAI) INC., priority 2004, published 2026).
pIC50: −log10 of the molar value. Where two headings read alike, the source gives them in different places.

Assays:
Assay type in all cases: cell-based, human
[1] = system: p-ERK in AsPC-1 cells (KRAS G12D mutation); experiment: Cell p-ERK assay (HTRF) in AsPC-1 cells; settings: AsPC-1 cells, 3 h compound incubation, HTRF p-ERK T202/Y204, read-out: AsPC-1 p-ERK IC50
How it was run: (§1)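 AsPC-1 (10000/well) or NCI-H441 (20000/well) cells were seeded in RPMI-1640 with 10% FBS, grown overnight, then exposed to 3.16-fold compound dilutions (0.1% DMSO) for 3 h at 37 °C. Lysates were read for phospho-ERK T202/Y204 by HTRF; IC50 came from four-parameter fits of inhibition versus DMSO and blank wells.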

[2] = system: NCI-H441 cells; experiment: 3D cell proliferation assay (CellTiter Glo-3D), NCI-H441; settings: medium with 2% FBS, read-out: H441 AP IC50
How it was run: (§2)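 Cells seeded at 800 per well in medium with 2% FBS, treated next day with 3.16-fold dilution series (0.1% DMSO) for 5 days at 37°C. Viability by CellTiter-Glo 3D luminescence; inhibition normalised to DMSO and cell-free controls, IC50 by four-parameter fit.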

[3] = system: p-ERK in NCI-H441 cells (KRAS G12V mutation); experiment: Cell p-ERK assay (HTRF) in NCI-H441 cells; settings: NCI-H441 cells, 3 h compound incubation, HTRF p-ERK T202/Y204, read-out: H441 p-ERK IC50
How it was run: as §1

[4] = system: AsPC-1 cells (KRAS G12D mutation); experiment: 3D cell proliferation assay (CellTiter Glo-3D), AsPC-1; settings: medium with 2% FBS, read-out: AsPC-1 AP IC50
How it was run: as §2

[5] = Homo sapiens, NCI-H441, 3D cell proliferation (CellTiter Glo-3D)
[6] = Homo sapiens, ASPC1, 3D cell proliferation (CellTiter Glo-3D)
[7] = 3D cell proliferation (CellTiter Glo-3D)

| pIC50 ([1]; Homo sapiens, ASPC1, 3 h) | pIC50 [2, 5] | pIC50 ([3]; Homo sapiens, NCI-H441, 3 h) | pIC50 [4, 6] | pIC50 [1] | pIC50 [2, 7] | pIC50 [3] | pIC50 [4, 7] | SMILES |
| --- | --- | --- | --- | --- | --- | --- | --- | --- |
| 9.29 | 9.52 | 9.66 | 9.19 |  |  |  |  | CCn1c(-c2cc(C#C[C@@]3(C)CCCN3C)cnc2[C@H](C)OC)c2c3cc(ccc31)-c1csc(n1)C[C@H](NC(=O)[C@H]1[C@H](C)[C@@H]1C)C(=O)N1CCC[C@H](N1)C(=O)OCC(C)(C)C2 (atropisomer, axis not shown; (Ra)) [Compound Z643, (1r,2R,3S)—N-((6^3S,4S,Z)—(Ra)-1-(5-(((R)-1,2-dimethylpyrrolidin-2-yl)ethynyl)-2-((S)-1-methoxyethyl)pyridin-3-yl)-1^1-ethyl-10,10-dimethyl-5,7-dioxo-6^1,6^2,6^3,6^4,6^5,6^6-hexahydro-1^1H-8-oxa-2(4,2)-thiazola-1(5,3)-indola-6(1,3)-pyridazinacycloundecaphane-4-yl)-2,3-dimethylcyclopropane-1-carboxamide] |
|  |  |  |  | 9.82 | 9.30 | 9.32 | 9.09 | CCn1c(-c2cc(C#CC3(N4CCCOCC4)CC3)cnc2[C@H](C)OC)c2c3cc(ccc31)-c1csc(n1)C[C@H](NC(=O)[C@H]1[C@H](C)[C@@H]1C)C(=O)N1CCC[C@H](N1)C(=O)OCC(C)(C)C2 (atropisomer, axis not shown; (Ra)) [Compound Z645, (1r,2R,3S)—N-((4S,Z)—(Ra)-1-(5-((1-(1,4-oxazepan-4-yl)cyclopropyl)ethynyl)-2-((S)-1-methoxyethyl)pyridin-3-yl)-1^1-ethyl-10,10-dimethyl-5,7-dioxo-6^1,6^2,6^3,6^4,6^5,6^6-hexahydro-1^1H-8-oxa-2(4,2)-thiazola-1(5,3)-indola-6(1,3)-pyridazinacycloundecaphane-4-yl)-2,3-dimethylcyclopropane-1-carboxamide] |
| 7.87 | 8.39 | 8.34 | 7.67 |  |  |  |  | CCn1c(-c2cc(N3CCN(C)CC3)cnc2[C@H](C)OC)c2c3cc(ccc31)-c1csc(n1)C[C@H](Nc1nnc3cc(C)ccn13)C(=O)N1CCC[C@H](N1)C(=O)OCC(C)(C)C2 (atropisomer, axis not shown; (Ra)) [Compound Z653, (6^3S,4S,Z)-1^1-ethyl-(Ra)-1^2-(2-((S)-1-methoxyethyl)-5-(4-methylpiperazin-1-yl)pyridin-3-yl)-10,10-dimethyl-4-((7-methyl-[1,2,4]triazolo[4,3-a]pyridin-3-yl)amino)-6^1,6^2,6^3,6^4,6^5,6^6-hexahydro-1^1H-8-oxa-2(4,2)-thiazola-1(5,3)-indola-6(1,3)-pyridazinacycloundecaphane-5,7-dione] |
| 8.40 | 9.08 | 8.80 | 8.57 |  |  |  |  | CCn1c(-c2cc(OCCN3CCOC4(CC4)C3)cnc2[C@H](C)OC)c2c3cc(ccc31)-c1csc(n1)C[C@H](NC(=O)[C@@H]1[C@@H](C)[C@H]1c1ccncn1)C(=O)N1CCC[C@H](N1)C(=O)OCC(C)(C)C2 (atropisomer, axis not shown; (Ra)) [Compound Z661-2, (1R,2S,3R)—N-((6^3S,4S,Z)—(Ra)-1^2-(5-(2-(4-oxa-7-azaspiro[2,5]octan-7-yl)ethoxy)-2-((S)-1-methoxyethyl)pyridin-3-yl)-11-ethyl-10,10-dimethyl-5,7-dioxo-6^1,6^2,6^3,6^4,6^5,6^6-hexahydro-1^1H-8-oxa-2(4,2)-thiazola-1(5,3)-indola-6(1,3)-pyridazinacycloundecaphane-4-yl)-2-methyl-3-(pyrimidin-4-yl)cyclopropane-1-carboxamide] |
| 7.46 | 7.96 | 8.27 | 7.17 |  |  |  |  | CCc1ccn2c(N[C@H]3Cc4nc(cs4)-c4ccc5c(c4)c(c(-c4cc(N6CCN(C)CC6)cnc4[C@H](C)OC)n5CC)CC(C)(C)COC(=O)[C@@H]4CCCN(N4)C3=O)nnc2c1 (atropisomer, axis not shown; (Ra)) [Compound Z662, (6^3S,4S,Z)-1^1-ethyl-4-((7-ethyl-[1,2,4]triazolo[4,3-a]pyridin-3-yl)amino)-(Ra)-1^2-(2-((S)-1-methoxyethyl)-5-(4-methylpiperazin-yl)pyridin-3-yl)-10,10-dimethyl-6^1,6^2,6^3,6^4,6^5,6^6-hexahydro-1^1H-8-oxa-2(4,2)-thiazola-1(5,3)-indola-6(1,3)-pyridazinacycloundecaphane-5,7-dione] |
|  |  |  |  | 9.49 | 9.68 | 9.96 | 9.11 | CCn1c(-c2cc(OCCN3CCS(=O)(=O)C(C)(C)C3)cnc2[C@H](C)OC)c2c3cc(ccc31)-c1csc(n1)C[C@H](NC(=O)[C@H]1C[C@@H]1C)C(=O)N1CCC[C@H](N1)C(=O)OCC(C)(C)C2 (atropisomer, axis not shown; (Ra)) [Compound Z665] |
|  |  |  |  | 9.20 | 9.15 | 9.42 | 8.79 | CCn1c(-c2cc(OCC(C)(C)N3CCS(=O)(=O)CC3)cnc2[C@H](C)OC)c2c3cc(ccc31)-c1csc(n1)C[C@H](NC(=O)[C@H]1[C@H](C)[C@@H]1C)C(=O)N1CCC[C@H](N1)C(=O)OCC(C)(C)C2 (atropisomer, axis not shown; (Ra)) [Compound Z667, (1r,2R,3S)—N-((6^1S,4S,Z)—(Ra)-1^2-(5-(2-(1,1-dioxidothiomorpholino)-2-methylpropoxy)-2-((S)-1-methoxyethyl)pyridin-3-yl)-1^1-ethyl-10,10-dimethyl-5,7-dioxo-6^1,6^2,6^3,6^4,6^5,6^6-hexahydro-1^1H-8-oxa-2(4,2)-thiazola-1(5,3)-indola-6(1,3)-pyridazinacycloundecaphane-4-yl)-2,3-dimethylcyclopropane-1-carboxamide] |
| 9.57 | 9.64 | 9.48 | 9.28 |  |  |  |  | CCn1c(-c2cc(C#C[C@H]3COCCN3C)cnc2[C@H](C)OC)c2c3cc(ccc31)-c1csc(n1)C[C@H](NC(=O)[C@H]1[C@H](C)[C@@H]1C)C(=O)N1CCC[C@H](N1)C(=O)OCC(C)(C)C2 (atropisomer, axis not shown; (Ra)) [Compound Z673, (1r,2R,3S)—N-((6^3S,4S,Z)-1^1-ethyl-(Ra)-1^2-(2-((S)-1-methoxyethyl)-5-(((S)-4-methylmorpholin-3-yl)ethynyl)pyridin-3-yl)-10,10-dimethyl-5,7-dioxo-6^1,6^2,6^3,6^4,6^5,6^6hexahydro-1^1H-8-oxa-2(4,2)-thiazola-1(5,3)-indola-6(1,3)-pyridazinacycloundecaphane-4-yl)-2,3-dimethylcyclopropane-1-carboxamide] |
| 9.46 | 9.70 | 9.54 | 9.28 |  |  |  |  | CO[C@@H](C)c1ncc(OCCN2CCS(=O)(=O)CC2)cc1-c1c2c3cc(ccc3n1CC(F)(F)F)-c1csc(n1)C[C@H](NC(=O)[C@H]1C[C@@H]1C)C(=O)N1CCC[C@H](N1)C(=O)OCC(C)(C)C2 (atropisomer, axis not shown; (Ra)) [Compound Z677, (1S,2S)—N-((6^3S,4S,Z)—(Ra)-1^2-(5-(2-(1,1-dioxidothiomorpholino)ethoxy)-2-((S)-1-methoxyethyl)pyridin-3-yl)-10,10-dimethyl-5,7-dioxo-1^1-(2,2,2-trifluoroethyl)-6^1,6^2,6^3,6^4,6^5,6^6-hexahydro-1^1H-8-oxa-2(4,2)-thiazola-1(5,3)-indola-6(1,3)-pyridazinacycloundecaphane-4-yl)-2-methylcyclopropane-1-carboxamide] |
|  |  |  |  | 10.22 | 10.22 | 9.77 | 9.77 | CO[C@@H](C)c1ncc(OCCN2CCS(=O)(=O)CC2)cc1-c1c2c3cc(ccc3n1C(C)C)-c1csc(n1)C[C@H](NC(=O)[C@H]1[C@H](C)[C@@H]1C)C(=O)N1CCC[C@H](N1)C(=O)OCC(C)(C)C2 (atropisomer, axis not shown; (Ra)) [Compound Z678, (1r,2R,3S)—N-((6^3S,4S,Z)—(Ra)-1^2-(5-(2-(1,1-dioxidothiomorpholino)ethoxy)-2-((S)-1-methoxyethyl)pyridin-3-yl)-1^1-isopropyl-10,10-dimethyl-5,7-dioxo-6^1,6^2,6^3,6^4,6^5,6^6-hexahydro-1^1H-8-oxa-2(4,2)-thiazola-1(5,3)-indola-6(1,3)-pyridazinacycloundecaphane-4-yl)-2,3-dimethylcyclopropane-1-carboxamide] |
| 9.44 | 9.52 | 9.77 | 9.17 |  |  |  |  | CCn1c(-c2cc(C#CCN3CCN(C)CC3)cnc2[C@H](C)OC)c2c3cc(ccc31)-c1csc(n1)C[C@H](NC(=O)[C@H]1[C@H](C)[C@@H]1C)C(=O)N1CCC[C@H](N1)C(=O)OCC(C)(C)C2 (atropisomer, axis not shown; (Ra)) [Compound Z703] |
